Laboratory results as given in patent publication US20250154105A1, “POLYCYCLIC COMPOUND AND USE THEREOF” (TYK MEDICINES, INC., priority 2021, published 2025).

Assays:
[1] = system: human pleural mesothelioma cells NCI-H226; experiment: Cell anti-proliferation experiment (CCK8), NCI-H226; type: cell-based
From the text: TEST EXAMPLE 1 CELL ANTI-PROLIFERATION EXPERIMENT
Determination of proliferation inhibition of YAP-TEAD inhibitor compounds on human pleural mesothelioma cells NCI-H226
Experimental materials and equipments: Human pleural mesothelioma cells NCI-H226 was purchased from NANJING COBIOER BIOSCIENCES CO., LTD. RPMI-1640 medium (Bio-Channel), DMSO (dimethyl sulfoxide), CCK8 (WST-8) Cell Assay Kit (Beyotime), 0.25% EDTA-Tripsin (trypsin digest), 1×PBS (phosphate buffer, PH7.2), 96-well plate (Corning), fetal bovine serum (FBS), 10,000 U/mL penicillin-G/streptomycin, high-speed freezing centrifuge (EPPENDORF 5810R), enzyme-linked immunosorbent assay (Tecan Spark).
1. Cell plating • A) Tumor cells were cultured to 80-90% density in RPMI-1640 (containing 10% FBS and 100 U/mL penicillin-G/streptomycin) under the condition of 37° C., 5% CO2 and saturated humidity. • B) The culture medium was removed from the 10 cm culture dish. • C) Cells were washed with 10 ml 1×PBS. • D) 4 ml of 0.25% EDTA-Tripsin was added to digest pancreatin for 5 minutes in an incubator at 37° C. and 5% CO2. Then the mixture was transferred to a 15 ml centrifuge tube, and centrifuged for 5 minutes at 200 g. The supernatant was discarded to obtain cell precipitation. • E) The cell precipitation was resuspended with 4 ml of […], counted and adjusted to 10,000 cells/ml. • F) The cell suspension was added to a 96-well plate with a volume of 100 μL per well and cultured overnight in an incubator at 37° C. and 5% CO2.
• Compound dilution • A) Preparation of gradient dilution solutions of the tested compounds: the tested compounds was configured to 1 mM stock solution. Then […] of stock solution was dissolved in 1.5 ml of DMSO-free culture solution, and then 3-fold continuous gradient dilution with 0.1% DMSO culture solution was performed to get a total of 9 concentrations. The diluted concentrations of the compound were as follows: 333.33 nM, 111.11 nM, 37.03 nM, 12.35 nM, 4.15 nM, 1.37 nM, 0.46 nM, 0.15 nM • B) After full mixing, 100 μL of culture compound solution was taken to replace the culture solution in the cell culture plate, with 4 duplicated wells at each concentration; • C) The cells were transferred to the incubator to incubate for 3 days.
• A) the cell culture plate was taken out and added with 10 μl of CCK-8 (WST-8) solution per well in the biosafety cabinet; • B) The cell culture plate was put back into the incubator and continued to incubate for 3 hours; • C) 450 nm wavelength was selected to measure absorbance value on TECAN enzyme linked immunosorbent assay detector.
The following formula was used to calculate the cell viability (% Cell Viability); • Cell Viability (%)=[A(Drug-added)-A(Blank)]/[A(0 Drug-added)-A(blank)][…] • A (Drug-added): The absorbance of wells containing cells, CCK8 solution, and drug solution. • A (Blank): The absorbance of wells containing culture medium and CCK8 solution, but without cells. • A (0 Drug-added): The absorbance of wells containing cells, CCK8 solution, but without drug solution. • Cell viability: Cell proliferation viability or cytotoxicity viability was determined by the IC50 value obtained by curve fitting using GraphPad Prism 8 software.

[2] = system: YAP-TEAD; experiment: YAP-TEAD inhibitor activity by Nano luciferase method (8xGTiiC-nLuc reporter in 293T cells); type: cell-based; settings: Homo sapiens, HEK-293T, 48 hours incubation, read-out: Nano-luciferase detection (IC50)
From the text: EXAMPLE 2: YAP-TEAD INHIBITOR ACTIVITY WAS DETECTED BY NANO LUCIFERASE METHOD
(1) Experimental materials and equipments: 293T cells were purchased from NANJING COBIOER BIOSCIENCES CO., LTD. DMEM medium (High sugar, no phenol red, Bio-Channel), DMSO (dimethyl sulfoxide), Lipo6000™ transfection reagent (Beyotime), pGL3B-8xGTiiC-nLuc-CMV-fLuc plasmid, 0.25% EDTA-Tripsin (trypsin digest), 1×PBS (phosphate buffer, PH7.2), 96-well white cell culture plate (PerkinElmer), fetal bovine serum (FBS), 10,000 U/mL penicillin-G/streptomycin, high-speed freezing centrifuge (EPPENDORF 5810R), 37° C. CO2 incubator, Vi-cell® Cell Counter, Envision Microplate Reader (PerkinElmer).
The revived 293T cells were inoculated into a 10 cm culture dish and placed in an incubator with 5% CO2, and cultured at constant temperature of 37° C. To ensure transfection efficiency, cells at logarithmic phase (cell density of approximately 50%-70%) should be used.
On the day before transfection, cells at the logarithmic phase were digested with Trypsin-EDTA, and culture medium was added to terminate digestion. The cell suspension was prepared by blowing and mixing using a pipette.
Cell concentration was measured using Vi-cell, and the cell suspension was diluted to a suspension of 5*10^^5 cells per milliliter. After preparing the cell suspension, the suspension was gently mixed. 10 ml of liquid was added to a 10 cm culture dish. In this way, the number of cells in each 10 cm culture dish was 5*10^^6. The cells were incubated at a constant temperature of 37° C. for 1 day in an incubator with 5% CO2.
Two clean and sterile centrifuge tubes were taken and added with 750 μL opti-MEM Medium without antibiotics and serum, respectively. Then one tube was added with 15 μg Plasmid (pGL3B-8xGTiiC-nLuc-CMV-fLuc), and gently blew and mixed well using a pipette; the other tube was added with Lipo6000 transfection reagent, and gently blew and mixed using a pipette. After standing at room temperature for 5 minutes, the culture solution containing DNA was added gently to the culture solution containing Lipo6000 transfection reagent, and mixed well by gently inverting the centrifuge tube, then standing at room temperature for 5 minutes.
The above mixture was added evenly to a 10 cm culture dish and replaced with fresh complete culture medium after 6 hours of cultivation.
After transfection for 1 day, cells were digested with Trypsin EDTA, and culture medium was added to terminate the digestion. The cell suspension was prepared by blowing and mixing using a pipette.
Cell concentration was measured using Vi-cell, and the cell suspension was diluted to a suspension of 20000 cells per milliliter.
After preparing the cell suspension, the suspension was gently mixed, and added to 96-well plate with 100 μL per well. Thus, the density of the cells to be tested is 2000 cells per well.
The inoculated cell culture plate was placed in the incubator for cultivation, and after about 24 hour, compounds with concentration gradient were added.
10 mM compound stock solution was diluted with culture medium to 50 μM. Compound solution of 50 μM was added to the third column of the deep well plate, 216 μL of culture medium containing 0.5% DMSO was added to the fourth to eleventh columns, successively.
Gradient dilution: taking 100 μL of solution from the third column and adding the solution to the fourth column and mixing well; then taking 100 µL of solution from the fourth column again and adding the solution to the fifth column, repeating this operation until the eleventh column.
Taking 25 μL of compound solution from the deep well plate and adding it to a 96-well culture plate using a multi-channel pipette. Repeating four times on the 96 well plate for each compound. Finally, a concentration gradient of 1:3.16 was formed in the 96-well plate with a maximum concentration of 10,000 nM. The • (5) Addition of Nano Luciferase Detection Reagent and Read […]

C[C@H](NC(=O)c1ccc2c(c1)c1c(c(=O)n2-c2ccc(C(F)(F)F)cc2)CC(F)(F)C1)c1ccccn1 [Example T-294]
IC50 [1]: ≤ 1000 nM | IC50 [2]: ≤ 1000 nM

C[C@H](NC(=O)c1ccc2c(c1)c1cc(C#N)ccc1c(=O)n2-c1ccc(C(F)(F)F)cc1)c1ccccn1 [Example T-319]
IC50 [1]: ≤ 1000 nM | IC50 [2]: ≤ 1000 nM

C[C@H](NC(=O)c1cnc2c(c1)c1cc(C#N)ccc1c(=O)n2-c1ccc(C(F)(F)F)cc1)c1ccccn1 [Example T-410]
IC50 [1]: ≤ 1000 nM | IC50 [2]: ≤ 1000 nM

CS(=O)(=O)Nc1ccc2c(c1)c1c(c(=O)n2-c2ccc(C(F)(F)F)cc2)CCC1 [Example T-432]
IC50 [1]: ≤ 1000 nM | IC50 [2]: ≤ 1000 nM

C[C@H](NC(=O)c1ccc2c(c1)c1nn(C)cc1c(=O)n2-c1ccc(C(F)(F)F)cc1)c1ccc(F)cn1 [Example T-144]
IC50 [1]: 1000 to 5000 nM | IC50 [2]: 1000 to 5000 nM

C[C@H](NC(=O)c1ccc2c(c1)c1ncccc1c(=O)n2-c1ccc(C(F)(F)F)cc1)c1ccccn1 [Example T-252]
IC50 [1]: ≤ 1000 nM | IC50 [2]: ≤ 1000 nM

Cn1cc2c(=O)n(-c3ccc(C(F)(F)F)cc3)c3ccc(C(=O)NCc4ncccn4)cc3c2n1 [Example T-139]
IC50 [1]: 1000 to 5000 nM | IC50 [2]: 1000 to 5000 nM

C[C@@H](C(=O)Nc1ccc2c(c1)c1nn(C)cc1c(=O)n2-c1ccc(C(F)(F)F)cc1)c1ccccn1 [Example T-168]
IC50 [1]: 1000 to 5000 nM | IC50 [2]: 1000 to 5000 nM

Cc1cccc2c1c(=O)n(-c1ccc(C(F)(F)F)cc1)c1ccc(C(=O)N[C@@H](C)c3ccccn3)cc21 [Example T-257]
IC50 [1]: ≤ 1000 nM | IC50 [2]: ≤ 1000 nM

C[C@H](NC(=O)c1ccc2c(c1)c1nn(C)cc1c(=O)n2-c1ccc(C(F)(F)F)cc1)c1ncccc1F [Example T-126]
IC50 [1]: ≤ 1000 nM | IC50 [2]: ≤ 1000 nM

CNS(=O)(=O)c1ccc2c(c1)c1ncn(CCOC)c1c(=O)n2-c1ccc(C(F)(F)F)cc1 [Example T-20]
IC50 [1]: ≤ 1000 nM | IC50 [2]: ≤ 1000 nM

CNS(=O)(=O)c1ccc2c(c1)-c1nn(C)cc1CCN2c1ccc(C(F)(F)F)cc1 [Example T-54]
IC50 [1]: ≤ 1000 nM | IC50 [2]: ≤ 1000 nM

C[C@H](NC(=O)c1ccc2c(c1)c1nn(C)cc1c(=O)n2Cc1ccc(C(F)(F)F)cc1)c1ccccn1 [Example T-270]
IC50 [1]: ≤ 1000 nM | IC50 [2]: ≤ 1000 nM

C[C@H](NC(=O)c1cnc2c(c1)C1CCCCC1C(=O)N2c1ccc(C(F)(F)F)cc1)c1ccccn1 (stereo partly drawn) [Example T-247]
IC50 [1]: ≤ 1000 nM | IC50 [2]: ≤ 1000 nM

C[C@H](NC(=O)c1ccc2c(c1)c1cncnc1c(=O)n2-c1ccc(C(F)(F)F)cc1)c1ccccn1 [Example T-333]
IC50 [1]: ≤ 1000 nM | IC50 [2]: ≤ 1000 nM

C=CC(=O)N[C@@H](C)c1c(C)c2ccccc2n(-c2ccc(C(F)(F)F)cc2)c1=O [Example T-284]
IC50 [1]: 1000 to 5000 nM | IC50 [2]: 1000 to 5000 nM

C[C@H](NC(=O)c1ccc2c(c1)-c1nn(C)cc1[C@@H](C)N2c1ccc(C(F)(F)F)cc1)c1ccccn1 [Example T-326]
IC50 [1]: ≤ 1000 nM | IC50 [2]: ≤ 1000 nM

CNS(=O)(=O)c1ccc2c(c1)c1ccccc1c(=O)n2-c1ccc(C(F)(F)F)cc1 [Example T-199]
IC50 [1]: 1000 to 5000 nM | IC50 [2]: 1000 to 5000 nM

C=C(F)C(=O)Nc1ccc2c(c1)c1nn(C)cc1c(=O)n2-c1ccc(C(F)(F)F)cc1 [Example T-235]
IC50 [1]: ≤ 1000 nM | IC50 [2]: ≤ 1000 nM

Cc1ccc2c(=O)n(-c3ccc(C(F)(F)F)cc3)c3ncc(C(=O)N[C@@H](C)c4ccccn4)cc3c2c1 [Example T-408]
IC50 [1]: ≤ 1000 nM | IC50 [2]: ≤ 1000 nM

CNS(=O)(=O)c1ccc2c(c1)c1ncn(C)c1c(=O)n2-c1cccc(C(F)(F)F)c1 [Example T-57]
IC50 [1]: ≤ 1000 nM | IC50 [2]: ≤ 1000 nM

C=CC(=O)Nc1ccc2c(c1)cc(C)c(=O)n2-c1ccc(C(F)(F)F)cc1 [Example T-412]
IC50 [1]: ≤ 1000 nM | IC50 [2]: ≤ 1000 nM

C[C@H](NC(=O)c1ccc2c(c1)c1ccc(F)cc1c(=O)n2-c1ccc(C(F)(F)F)cc1)c1ccccn1 [Example T-260]
IC50 [1]: ≤ 1000 nM | IC50 [2]: 1000 to 5000 nM

Cc1scc2c1c(=O)n(-c1ccc(C(F)(F)F)cc1)c1ccc(C(=O)N[C@@H](C)c3ccccn3)nc21 [Example T-386]
IC50 [1]: ≤ 1000 nM | IC50 [2]: ≤ 1000 nM
